One assay relates to adjuvant-induced arthritis. Description: Established adjuvant-induced arthritis in rats (paw volume, uninjected left hind paw). The format is in vivo, Male Charles River Lewis rats. As to conditions: Rattus norvegicus, po, read-out: Adjuvant Arthritis ED50 (effective dose for 50% decrease from control paw volume). The source says: To detect and compare the antiinflammatory activities of compounds in this series and standard drugs, the adjuvant arthritis test was used. A good correlation exists with results in this assay and human efficacy. (Federation Proceedings, 32, 2, 1973 "Models Used for the Study and Therapy of Rheumatoid Arthritis"--Symposium of the American Society for Pharmacology and Experimental Therapeutics).
ESTABLISHED ADJUVANT-INDUCED ARTHRITIS IN RATS
Male Charles River Lewis rats (130-150 grams) are injected subcutaneously in the plantar area of the right hind paw with 0.1 ml of adjuvant (Difco heat-killed, lyophilized Mycobacterium butyricum suspended in mineral oil 5 mg/ml). 20 Non-arthritic controls are injected with mineral oil. The animals are held for 2 weeks to allow development of arthritis. Paw volumes (uninjected, left hind paw) are measured and the adjuvant injected rats are culled and distributed to treatment groups of 10 of equal disease severity. Non-arthritic controls are distributed to 2 groups of 10. The rats are given oral doses of compound or PVA-Acacia (Polyvinyl Alcohol 1%, Gum acacia, U.S.P. 5%, Methylparaben 0.5%) or 0.25% methocel (10 ml/kg) by gavage on that day and on the 6 following days. One day after the last dose, the paw volumes (uninjected, left hind paw) are measured using a Ugo Basile Volume Differential Meter Model 7101. Inhibiting effects are calculated by the following formula: [formula]
Dose-response regression lines of the percent decrease are plotted on semi-log paper by visual fit and the effective dose for 50% decrease from control paw volume (ED50) is determined by inspection.
Compounds from this series were also compared to indomethacin, phenylbutazone, ibuprofen, and aspirin.
Usually ED50 stands for the dose at which the effect has come halfway, by size or by number of responders. As for `CC(=O)Oc1ccccc1C(=O)O` [Aspirin, reference compound], the ED50 is 305 mg/kg. The same measure, in the same setting: the figure for `COc1ccc2c(c1)c(CC(=O)O)c(C)n2C(=O)c1ccc(Cl)cc1` [Indomethacin, reference compound] is 0.3 mg/kg.

Still in this assay, the particulars now being: rat, oral gavage daily, 7 days; paw volume one day after last dose; read-out: Adjuvant Arthritis ED50 (effective dose for 50% decrease from control paw volume).
Take `CS(=O)(=O)c1ccc(-c2[nH]c(Br)cc2-c2ccc(F)cc2)cc1` [Example 2, 2-Bromo-4-(4-fluorophenyl)-5-(4-methylsulfonylphenyl)-1H-pyrrole]: the ED50 turned out to be 1.1 mg/kg. Regarding `CS(=O)(=O)c1ccc(-c2[nH]c(Cl)cc2-c2ccc(F)cc2)cc1` [Example 3, 2-Chloro-4-(4-fluorophenyl)-5-(4-methylsulfonylphenyl)-1H-pyrrole], the ED50 was found to be 0.5 mg/kg. The same measure, in the same setting: the figure for `CS(=O)(=O)c1ccc(-c2[nH]c(I)cc2-c2ccc(F)cc2)cc1` [Example 4, 2-Iodo-4-(4-fluorophenyl)-5-(4-methylsulfonylphenyl)-1H-pyrrole] is 22 mg/kg; for `Cn1c(Br)cc(-c2ccc(F)cc2)c1-c1ccc(S(C)(=O)=O)cc1` [Example 5, 1-Methyl-2-bromo-4-(4-fluorophenyl)-5-(4-methylsulfonylphenyl)pyrrole] it is 1.7 mg/kg.

For `CS(=O)(=O)c1ccc(-c2[nH]c(Br)c(Br)c2-c2ccc(F)cc2)cc1` [Example 6], the ED50 was found to be 0.88 mg/kg. `CS(=O)(=O)c1ccc(-c2[nH]c(Cl)c(Cl)c2-c2ccc(F)cc2)cc1` [Example 9]: the ED50 was 1.5 mg/kg. On the same count and under the same terms, with `CC(C)Cc1ccc(C(C)C(=O)O)cc1` (stereo not drawn) [Ibuprofen, reference compound] the figure was 100 mg/kg; with `CCCCC1C(=O)N(c2ccccc2)N(c2ccccc2)C1=O` [Phenylbutazone, reference compound], 10 mg/kg.

Still in this assay, the particulars now being: rat, oral, daily dose 3 (mg/kg).
With `CS(=O)(=O)c1ccc(-c2[nH]c(Cl)c(Br)c2-c2ccc(F)cc2)cc1` [Example 8, 2-Chloro-3-bromo-4-(4-fluorophenyl)-5-(4-methylsulfonylphenyl)-1H-pyrrole], the “% decrease from control paw volume at indicated daily dose” value is listed as 45%.

Staying with this assay, now noted: rat, oral, daily dose 9 (mg/kg).
As for `CC(C)(C)OC(=O)n1c(Br)cc(-c2ccc(F)cc2)c1-c1ccc(S(C)(=O)=O)cc1` [Example 1, 1-tert-Butyloxycarbonyl-2-bromo-4-(4-fluorophenyl)-5-(4-methylsulfonylphenyl)pyrrole], the “% decrease from control paw volume at indicated daily dose” value was 44%.
